According to patent publication US6451835B1, “Pesticidal fluoroethyl pyrazole derivatives” (Uniroyal Chemical Company, Inc., priority 2001, dated 2002):

Assays:
Type in all cases: in vivo
[1] = tested on: Tefranychus urticae Koch; experiment: Mite adulticide test (MI); conditions: 1000 ppm spray to run off on cowpea leaves; adult mites added 1 day after treatment, read five days later
Protocol: (§1) Stock solutions of each of the compounds were prepared at 1000 ppm by dissolving 0.08 gram of each compound to be tested in 8 mL of acetone and adding 72 mL of distilled water plus 3 drops of ethoxylated sorbitan monolaurate, a wetting agent. […] For each example that follows, these stock solutions were used and the specified dilutions made. All the tests discussed below, which involved treatment with compounds of this invention, were always repeated with controls to permit a comparison upon which the percent control was calculated. One day before treatment of cowpea primary leaves with the test solutions, a “FIG. 8” configuration of tree tanglefoot was applied to each of two cowpea primary leaves, one from each of two plants in a pot. In each “Figure”, the circle nearer the stem was designated for the mite ovicide test and the circle farther from the stem was designated for the mite adulticide test. Groups of adult mites (Tefranychus urticae Koch) were transferred into ovicide circles one day before treatment and the females were allowed to deposit eggs until one hour before treatment, at which point all the adults were removed. The plants were then sprayed to run off with each 1000 ppm stock solution of Example 2. One day following treatment of the plants with the test solution, groups of approximately 25 adult mites were transferred into the adulticide rings. Five days later, these rings were examined for live mites remaining on the leaves. The percent control was estimated based on the number of mites surviving on the control plants. Nine days following treatment the ovicide rings were examined for unhatched eggs and living immature mites. The percent control was estimated based on the number of unhatched eggs.

[2] = tested on: Tefranychus urticae Koch eggs; experiment: Mite ovicide test (MIOV); conditions: 1000 ppm spray to run off on cowpea leaves; unhatched eggs read nine days following treatment
Protocol: as §1

[3] = tested on: rice delphacids, Sogatodes orizicola; experiment: Rice planthopper foliar test (RPH); conditions: 1000 ppm spray on rice seedlings; adults added 1 day after treatment, counted five days after transferring
Protocol: (§2) Stock solutions of each of the compounds were prepared at 1000 ppm by dissolving 0.08 gram of each compound to be tested in 8 mL of acetone and adding 72 mL of distilled water plus 3 drops of ethoxylated sorbitan monolaurate, a wetting agent. […] For each example that follows, these stock solutions were used and the specified dilutions made. All the tests discussed below, which involved treatment with compounds of this invention, were always repeated with controls to permit a comparison upon which the percent control was calculated.
One thousand ppm of each stock solution of Example 2 was used for this test. One pot containing approximately 20 rice seedlings was treated with each formulation by spraying with a spray atomizer. One day after treatment, plants were covered with a tubular cage and 20 adult rice delphacids, Sogatodes orizicola, were transferred into each cage. Five days after transferring, counts were made of the surviving planthoppers in each pot and percent control was estimated.

[4] = tested on: Helicoverpa virescens larva; experiment: Tobacco budworm test (TB); conditions: 0.2 mL of 1000 ppm stock solution on diet cell surface; second instar larva; after 14 days; corrected by Abbott's formula
Protocol: as §2
For each compound tested, 0.2 mL of each stock solution of Example 2 was pipetted onto the surfaces of each of five diet cells, allowed to spread over the surfaces, and air dried for two hours. Then, a second instar Helicoverpa virescens larva was introduced into each cell. After 14 days, the number of living larvae was determined for each treatment and percent control, corrected by Abbott's formula (J. Econ. Entomology (1925, 265-267), was calculated. The results of the testing of tobacco budworms (TB) are presented in Table 2.

[5] = tested on: Southern Corn Rootworm (Diabrotica undecimpuncatat); experiment: Southern corn rootworm test (CR); conditions: 100 ppm test solution, corn seedlings on filter paper; second instar larvae; after five days; corrected by Abbott's formula
Protocol: Stock solutions of each of the compounds were prepared at 1000 ppm by dissolving 0.08 gram of each compound to be tested in 8 mL of acetone and adding 72 mL of distilled water plus 3 drops of ethoxylated sorbitan monolaurate, a wetting agent. […] For each example that follows, these stock solutions were used and the specified dilutions made. All the tests discussed below, which involved treatment with compounds of this invention, were always repeated with controls to permit a comparison upon which the percent control was calculated. One thousand ppm of each stock solution of Example 2 was diluted to 100 ppm (the “test solution”). For each compound, 2.5 mL of each test solution was pipetted onto a filter paper (Whatman #3) at the bottom of a 100 mm petri dish. Two corn seedlings were soaked in the 100 ppm solution for one hour and transferred to the petri dish containing the same test solution. After 24 hours, each dish was loaded with 5 second instar larvae of Southern Corn Rootworm (Diabrotica undecimpuncatat). After five days, the number of live larvae was noted and the percent control, corrected by Abbott's formula, was calculated.

[6] = tested on: root knot nematode (Meloidogmne incognita); experiment: Nematode test (NE); conditions: soil drench, soil concentration of 50 ppm; tomato seedling roots evaluated for galls nineteen days after planting
Protocol: Stock solutions of each of the compounds were prepared at 1000 ppm by dissolving 0.08 gram of each compound to be tested in 8 mL of acetone and adding 72 mL of distilled water plus 3 drops of ethoxylated sorbitan monolaurate, a wetting agent. […] For each example that follows, these stock solutions were used and the specified dilutions made. All the tests discussed below, which involved treatment with compounds of this invention, were always repeated with controls to permit a comparison upon which the percent control was calculated. One thousand ppm of each stock solution of Example 2 was used for this test. For each test solution, 25 mL was drenched onto separate 500 gram samples of soil infested with root knot nematode (Meloidogmne incognita) eggs in a pot, for a soil concentration of 50 ppm. One day after treatment, two tomato seedlings were planted in each pot. Nineteen days after planting, the roots were evaluated for the presence of knots or galls, and the percent control was estimated on the infestation levels in check plants.

SMILES | Percent Control MI [1] | Percent Control MIOV [2] | Percent Control RPH [3] | Percent Control TB [4] | Percent Control CR [5] | Percent Control NE [6]
FCCC1(c2ccccc2)C=NNC1 (stereo not drawn) [Compound 1, 4-(2-fluoroethyl)-4-phenyl-1H-pyrazole] | 0% | 100% | 20% | 20% | 0% | 50%
FCCn1cc(-c2ccc(Cl)cc2)cn1 [Compound 2] | 100% | 100% | 0% | 40% | 100% | 100%
FCCn1cc(-c2ccc(C(F)(F)F)cc2)cn1 [Compound 3] | 0% | 0% | 0% | 100% | 100% | 0%
FCCn1cc(-c2cccc(Br)c2)cn1 [Compound 4] | 100% | 100% | 0% | 7% | 0% | 100%
FCCn1cc(-c2ccc(Cl)c(Cl)c2)cn1 [Compound 5] | 100% | 100% | 0% | 0% | 63% | 60%
FCCn1cc(-c2cccc(C(F)(F)F)c2)cn1 [Compound 6] | 0% | 100% | 85% | 0% | 100% | 100%
FCCn1cc(-c2ccc(OC(F)(F)F)cc2)cn1 [Compound 7] | 0% | 100% | 85% | 0% | 100% | 100%
